Measured values as given in patent publication US12590062B2, “PD-1/PD-L1 inhibitors” (Gilead Sciences, Inc., priority 2017, dated 2026).

Columns and labels:
[1] = target: T1, PD-1/PD-L1 interaction (Homo sapiens, UniProt Q9NZQ7); test: PD-1/PD-L1 NFAT reporter co-culture assay; format: cell-based; conditions: Jurkat PD-1 NFAT-luciferase cells co-cultured with aAPC-PD-L1 CHO cells, 6 hrs at 37° C.; read-out: EC50 NFAT Luciferase
T1 construct: expressed in transfected cells; host or cells: CHO cells (aAPC-PD-L1) co-cultured with Jurkat cells overexpressing PD-1 and an NFAT-luciferase reporter
Method in brief: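 CHO aAPC-PD-L1 seeded overnight; PD-1/NFAT-luc Jurkat + cpd in RPMI 1640, 2% FBS added at once; 6 h, 37 °C; ONE-Glo luminescence; EC50, 4-parameter fit.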

[2] = target: T2, PD-L1 (Homo sapiens, UniProt Q9NZQ7); test: PD-L1/PD-L1 dimerization biochemical protein-protein interaction assay (ALPHA); format: binding; conditions: compound-induced PD-L1 dimerization, head prints '1 nM' (0.5 nM His-tagged PD-L1 and 0.5 nM FLAG-tagged PD-L1), read-out: AC50 PDL1 Dimer Alpha 1 nM
T2 construct: determine if they can specifically dimerize the extracellular domains of PD-L1
Method in brief: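 ALPHA proximity assay of compound-induced dimerization of 0.5 nM His-tagged and 0.5 nM FLAG-tagged PD-L1 extracellular domains in Hepes pH 7.4 buffer, 2 h at 25 °C. Anti-His acceptor then anti-FLAG donor beads, 60 min each; AC50 from four-parameter fit.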

[3] = target: PD-1/PD-L1 (Homo sapiens, UniProt Q9NZQ7); test: PD-1/PD-L1 biochemical protein-protein interaction assay (ALPHA); format: binding; conditions: 0.3 nM His tagged PD-L1, 2.5 nM biotinylated Fc-PD-1, 60 minutes at 25° C., read-out: IC50 PD-L1-PD-1 Alpha IC50-mono PD-L1-fcP-D1
Method in brief: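 Final concentrations 0.3 nM His-tagged PD-L1 and 2.5 nM biotinylated Fc-PD-1 (extracellular domains) were reacted with compound for 60 min at 25° C in pH 7.4 Hepes/NaCl/EDTA/Tween/BSA buffer. Binding was then detected by ALPHA beads, and IC50 values were taken from four-parameter curve fitting.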

PD-1/PD-L1, sequence (Q9NZQ7 19-238 limits assumed): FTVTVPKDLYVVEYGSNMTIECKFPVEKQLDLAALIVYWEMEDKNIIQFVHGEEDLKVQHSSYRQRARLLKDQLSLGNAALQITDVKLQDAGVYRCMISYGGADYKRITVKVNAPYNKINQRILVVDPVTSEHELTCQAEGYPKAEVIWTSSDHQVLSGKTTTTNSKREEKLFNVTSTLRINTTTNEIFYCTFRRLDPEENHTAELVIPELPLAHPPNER
T2 sequence (Q9NZQ7 19-238 limits assumed): as above
T2 sequence (Q9NZQ7 19-238 limits assumed): as above
T1 sequence (Q9NZQ7 19-290): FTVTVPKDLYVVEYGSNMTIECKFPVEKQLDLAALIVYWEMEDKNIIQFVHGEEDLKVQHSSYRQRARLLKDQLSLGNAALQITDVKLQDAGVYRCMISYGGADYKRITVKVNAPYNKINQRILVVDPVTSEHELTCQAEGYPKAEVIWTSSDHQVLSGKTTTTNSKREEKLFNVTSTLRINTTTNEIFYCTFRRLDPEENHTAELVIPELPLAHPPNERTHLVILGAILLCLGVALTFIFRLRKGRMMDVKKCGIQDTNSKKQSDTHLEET

EC50 [1] [nM] | AC50 [2] [nM] | IC50 [3] [nM] | Compound
155 | 92.9 | 0.064 | Cc1c(COc2cc(OCc3cncc(C#N)c3)c(CN[C@@](C)(CO)C(=O)O)cc2Cl)cccc1-c1cccc(COc2cc(OCc3cncc(C#N)c3)c(CN[C@@](C)(CO)C(=O)O)cc2Cl)c1Br [Example 481]
47 | 25.5 | 0.064 | Cc1c(COc2cc(OCc3cncc(C#N)c3)c(CNC(C)(C)C(=O)O)cc2Cl)cccc1-c1cccc(-c2ccc(CN(C)C)cc2)c1Br [Example 482]
69 | 40.9 | 0.064 | Cc1c(COc2cc(OCc3cncc(C#N)c3)c(CN[C@@](C)(CO)C(=O)O)cc2Cl)cccc1-c1cccc(-c2ccc(CN(C)C)cc2)c1Br [Example 483]
138 | 108 | 0.205 | Cc1c(COc2cc(OCc3cncc(C#N)c3)c(CNC[C@@H](O)CC(=O)O)cc2Cl)cccc1-c1cccc(-c2ccc(CN(C)C)cc2)c1Br [Example 484]
200 | 61.3 | 0.321 | CS(=O)(=O)c1cncc(COc2nc(OCc3cccc(-c4cccc(-c5ccc(OCCNCCO)cc5)c4Cl)c3Cl)c(Cl)cc2CNC[C@@H](O)CC(=O)O)c1 [Example 485]
16 | 25.2 | 0.064 | COc1nc(O[C@H]2CCc3c(-c4cccc(-c5cc(C)c(CNC[C@@H]6CCC(=O)N6)c(OC)n5)c4Cl)cccc32)c(Cl)cc1CN1CC(C(=O)O)C1 [Example 487]
26 | 25.6 | 0.064 | COc1nc(O[C@H]2CCc3c(-c4cccc(-c5cc(C)c(CNC[C@@H]6CCC(=O)N6)c(OC)n5)c4Cl)cccc32)c(Cl)cc1CN1CC[C@@](C)(C(=O)O)C1 [Example 488]
18 | 18.3 | 0.064 | COc1nc(O[C@H]2CCc3c(-c4cccc(-c5cc(C)c(CNC[C@@H]6CCC(=O)N6)c(OC)n5)c4Cl)cccc32)c(Cl)cc1CN1CC[C@](C)(C(=O)O)C1 [Example 489]
19 | 14.1 | 0.064 | COc1nc(O[C@H]2CCc3c(-c4cccc(-c5cc(C)c(CNC[C@@H]6CCC(=O)N6)c(OC)n5)c4Cl)cccc32)c(Cl)cc1CN1CC[C@@H](C(=O)O)C1 [Example 490]
21 | 19.8 | 0.064 | COc1nc(O[C@H]2CCc3c(-c4cccc(-c5cc(C)c(CNC[C@@H]6CCC(=O)N6)c(OC)n5)c4Cl)cccc32)c(Cl)cc1CN1CC[C@H](C(=O)O)C1 [Example 491]
182 | 302 | 1.43 | Cc1c(COc2cc(OCc3cncc(C#N)c3)c(CNC[C@@H]3CCC(=O)N3)cc2Cl)cccc1-c1cccc(-c2ccc(CNC[C@@H]3CCC(=O)N3)cc2)c1C [Example 497]
111 | 84.7 | 0.115 | Cc1c(COc2cc(OCc3cncc(C#N)c3)c(CN[C@@](C)(CO)C(=O)O)cc2Cl)cccc1-c1cccc(-c2cccc([C@@H](C)N)c2)c1C [Example 498]
59 | 86.5 | 0.093 | Cc1c(COc2cc(OCc3cncc(C#N)c3)c(CN[C@@](C)(CO)C(=O)O)cc2Cl)cccc1-c1cccc(-c2cccc([C@H](C)N)c2)c1C [Example 499]
97 | 50.1 | 0.064 | Cc1c(COc2cc(OCc3cncc(C#N)c3)c(CN[C@@](C)(CO)C(=O)O)cc2Cl)cccc1-c1cccc(-c2ccc(C3=NCCN3)cn2)c1C [Example 500]
60 | 35.3 | 0.064 | COc1cc(-c2cccc(-c3cccc(COc4cc(OCc5cncc(C#N)c5)c(CN[C@@](C)(CO)C(=O)O)cc4Cl)c3C)c2C)ccc1C1=NCCN1 [Example 501]
100 | 85.2 | 0.081 | COc1cc(-c2cccc(-c3cccc(COc4cc(OCc5cncc(C#N)c5)c(CNC[C@@H](O)CC(=O)O)cc4Cl)c3C)c2C)ccc1C1=NCCN1 [Example 502]
81 | 42.1 | 0.064 | Cc1c(COc2cc(OCc3cncc(C#N)c3)c(CN[C@@](C)(CO)C(=O)O)cc2Cl)cccc1-c1cccc(-c2ccc(C3=NCCN3)cc2)c1C [Example 503]
68 | 47.8 | 0.064 | COc1nc(-c2cccc(-c3cccc(COc4cc(OCc5cncc(C#N)c5)c(CN[C@@](C)(CO)C(=O)O)cc4Cl)c3C)c2C)ccc1C1=NCCN1 [Example 504]

EC50 [1] [nM] | AC50 [2] [nM] | IC50 [3] [nM] | Compound
80 | 55 | 0.064 | COc1nc(-c2cccc(-c3cccc(COc4cc(OCc5cncc(C#N)c5)c(CNC[C@@H](O)CC(=O)O)cc4Cl)c3C)c2C)ccc1C1=NCCN1 [Example 505]
204 | 172 | 0.239 | COc1cc(-c2cccc(-c3cccc(COc4cc(OCc5cncc(C#N)c5)c(CN[C@@](C)(CO)C(=O)O)cc4Cl)c3C)c2C)ccc1CN [Example 506]
210 | 262 | 0.693 | COc1cc(-c2cccc(-c3cccc(COc4cc(OCc5cncc(C#N)c5)c(CNC[C@@H](O)CC(=O)O)cc4Cl)c3C)c2C)ccc1CN [Example 507]
156 | 78 | 0.084 | COc1cc(-c2cccc(-c3cccc(COc4cc(OCc5cncc(C#N)c5)c(CN[C@@](C)(CO)C(=O)O)cc4Cl)c3C)c2C)ccc1CNCC1CCC(=O)N1 (stereo partly drawn) [Example 508]
89 | 129 | 0.097 | COc1ccc(-c2cccc(-c3cccc(COc4cc(OCc5cncc(C#N)c5)c(CN[C@@](C)(CO)C(=O)O)cc4Cl)c3C)c2C)cc1CNCC1CCC(=O)N1 (stereo partly drawn) [Example 509]
147 | 232 | 0.064 | Cc1c(COc2cc(OCc3cncc(C#N)c3)c(CN3C[C@@H](O)C[C@H]3C(=O)O)cc2Cl)cccc1-c1cccc(-c2ccc(OCCNCCO)cc2)c1C [Example 510]
197 | 36.9 | 0.082 | Cc1c(COc2cc(OCc3cncc(C#N)c3)c(CN[C@](C)(CO)C(=O)O)cc2Cl)cccc1-c1cccc(-c2ccc(OCCNCCO)cc2)c1C [Example 511]
131 | 255 | 0.526 | COc1cc(-c2cccc(-c3cccc(-c4cc(F)c(CNC[C@@H]5CCC(=O)N5)c(OC)c4)c3Cl)c2Cl)cc(F)c1CNC[C@@H]1CCC(=O)N1 [Example 512]
47 | 89.3 | 0.301 | COc1cc(-c2cccc(-c3cccc(-c4ccc(CNC[C@@H]5CCC(=O)N5)c(OC)c4)c3Cl)c2Cl)ccc1CNC[C@@H]1CCC(=O)N1 [Example 513]
156 | 359 | 0.735 | Cc1c(COc2cc(OCc3cncc(C#N)c3)c(CNC[C@@H](O)CC(=O)O)cc2Cl)cccc1-c1cccc(-c2ccc(CNC[C@@H](O)CC(=O)O)c(-c3ccccc3)c2)c1C [Example 514]
92 | 104 | 0.065 | Cc1c(COc2cc(OCc3cncc(C#N)c3)c(CN[C@@](C)(CO)C(=O)O)cc2Cl)cccc1-c1cccc(-c2ccc(OCCN3CCC4(CCCNC4=O)CC3)cc2)c1C [Example 516]
154 | 91.7 | 0.064 | Cc1c(COc2cc(OCc3cncc(C#N)c3)c(CN[C@@](C)(CO)C(=O)O)cc2Cl)cccc1-c1cccc(-c2ccc(OCCNC[C@@H]3CCC(=O)N3)cc2)c1C [Example 517]
159 | 96.1 | 0.064 | Cc1c(COc2cc(OCc3cncc(C#N)c3)c(CN[C@@](C)(CO)C(=O)O)cc2Cl)cccc1-c1cccc(-c2ccc(OCCNC[C@H]3CCC(=O)N3)cc2)c1C [Example 518]
125 | 103 | 0.064 | Cc1c(COc2cc(OCc3cncc(C#N)c3)c(CNC[C@@H](O)CC(=O)O)cc2Cl)cccc1-c1cccc(-c2ccc(OCCN3CC4(CCC(=O)N4)C3)cc2)c1C [Example 519]
97 | 57.5 | 0.064 | Cc1c(COc2cc(OCc3cncc(C#N)c3)c(CN[C@@](C)(CO)C(=O)O)cc2Cl)cccc1-c1cccc(-c2ccc(OCCN3CC4(CCC(=O)N4)C3)cc2)c1C [Example 520]
106 | 125 | 0.064 | Cc1c(COc2cc(OCc3cncc(C#N)c3)c(CN[C@@](C)(CO)C(=O)O)cc2Cl)cccc1-c1cccc(-c2ccc(OCCN3CCC4(CC3)CNC(=O)C4)cc2)c1C [Example 521]
195 | 74.3 | 0.064 | Cc1c(COc2cc(OCc3cncc(C(=O)O)c3)c(CN[C@@](C)(CO)C(=O)O)cc2Cl)cccc1-c1cccc(-c2ccc(OCCN3CC[C@@H](O)C3)cc2)c1C [Example 522]
129 | ≥ 10000 | 0.295 | COc1cc(OCc2cccc(-c3cccc(COc4cc(OC)c(CNC[C@@H](O)CC(=O)O)cc4C#N)c3C)c2C)c(C#N)cc1CNC[C@@H](O)CC(=O)O [Example 523]
